Measured values reported in US20250129012A1, “ANTI-INFLAMMATORY AND ANALGESIC COMPOUNDS AND USE THEREOF” (JIANGSU ATOM BIOSCIENCE AND PHARMACEUTICAL CO., LTD., priority 2021, published 2025).
Read-outs that look alike come from different tables or passages of the source. Marks after values point to notes of the source that are not given here.

Columns and labels:
TNF-α = experiment: Inflammatory factor experiment B: TNF-α in knee synovial tissue (ELISA); format: in vivo, SD rats; details: Rattus norvegicus, po, read-out: TNF-α percentage decrease %
[1] = Acute toxicity test in mice by single administration; format: in vivo, ICR mice; details: both sexes, ICR, mouse, in vivo, po; acute toxicity, mice, single gavage; read-out: Maximum tolerated dose (MTD)
Description: (§1) Compounds 34, 48, 55 and 58 were ground with 0.5% CMC-Na before administration, and prepared into a suspension of the corresponding concentration for gavage, with an administration volume of 0.1 mL/10 g.
(§2) ICR mice, SPF grade, weighing 18-20 g, 6-8 weeks old, were provided by Nantong University. The Laboratory Animal Production License was SCXK (Su) 2016-0010 and Laboratory Animal Use License was SYXK (Su) 2017-0035.
(§3) After overnight fasting, the drug was administered once by gavage in a volume of 0.1 mL/10 g. The normal group was given the corresponding volume of 0.5% CMC-Na solution according to body weight. The state of the animal was observed after administration, the animals were weighed daily and the number of deaths was recorded for 14 consecutive days.

ICR mice = experiment: as above; format: in vivo; details: 14 days, deaths/animals
Description: as §1, §2, §3

IL-1β = experiment: Inflammatory factor experiment B: IL-1β in knee synovial tissue (ELISA); format: in vivo, SD rats; details: Rattus norvegicus, po, read-out: IL-1β percentage decrease %
[2] = test system: gouty arthritis rats (sodium urate, right ankle and knee joint cavities); experiment: Pharmacodynamics experiment B on gouty arthritis rats: gait score; format: in vivo, SD rats; details: for Gait Score: dose 0.6 mg/kg gavage, mean; for Gait versus model group, in words: compounds 0.6 mg/kg, colchicine 0.6 and 1.2 mg/kg
Description: (§4) Compounds 12, 16, 19, 30, 34, 36, 38, 40, 44, 48, 49, 52, 58, 69, 83, 98, 102, 119, 121, and 122 were prepared by grinding with 0.5% CMC-Na prior to administration and formulated into suspensions of appropriate concentration (0.12 mg/mL) for gavage, with an administered dose of 0.5 mL/100 g.
(§5) 240 SD rats, males, were acclimatized for one week and weighed 180-220 g. […] The dose of each compound group was 0.6 mg/kg. The compounds in each group were prepared into the corresponding concentration suspension, and the volume of administration was 10 mL/kg.
(§6) 250 mg of sodium urate were added to 9 mL of saline, and 1 mL of Tween-80 solution was added, the resulting mixture was heated and stirred to formulate 10 mL of sodium urate solution. The rats were grasped and fixed, and 0.2 mL of sodium urate solution was injected into the right ankle and knee joint cavities respectively to establish gouty arthritis rat model.
(§7) Before modeling, positive drug and tested compounds were pre-administered for 7 days, once a day, and modeling was performed on day 8, and drug administration by gavage continued for 3 days after modeling.
Gait was scored according to the modified gait grading criteria introduced by Coderre et al. The gait of each rat was observed before and 2 h, 4 h, 8 h, 10 h, 24 h and 48 h after modeling and graded scoring was performed. The gait grading criteria were as follows: 0 point, normal walking; 1 point, slight lameness, the lower limbs were slightly bent; 2 points: moderate lameness, the lower limbs just touched the ground; 3 points, severe lameness, the lower limbs left the ground, and walked on three feet. The mean score of each group was calculated and compared with that of the model group.
(§8) Each experimental data was expressed as the mean, and intergroup comparisons were examined for significance using the ANOVA-Dunnett T-test, with P<0.05 as the significance indicator.

[3] = test system: gouty arthritis rats (sodium urate, right ankle and knee joint cavities); experiment: Pharmacodynamics experiment B on gouty arthritis rats: ankle swelling rate; format: in vivo, SD rats; details: Rattus norvegicus, po, read-out: Swelling rate (ankle)
Description: as §4, §5, §6, §7
Before modeling and 2 h, 4 h, 8 h, 10 h, 24 h and 48 h after modeling, the circumference of the right ankle joint was measured using a soft ruler or the volume change at the ankle was measured (volumetric method), and the swelling degree and swelling rate of ankle joint were calculated:
Swelling degree (mm)=measured circumference (mm)−baseline circumference (mm)
Swelling rate (%)=swelling degree (mm)/baseline circumference (mm)×100%
as §8

IL-6 = experiment: Inflammatory factor experiment B: IL-6 in knee synovial tissue (ELISA); format: in vivo, SD rats; details: Rattus norvegicus, po, read-out: IL-6 percentage decrease %
[4] = synovial tissue of knee joints, 48 h after modeling, dose 0.6 mg/kg

| SMILES | Gait Score ([2]; 2 h) | Gait Score ([2]; 4 h) | Gait Score ([2]; 8 h) | Gait Score ([2]; 10 h) | Gait Score ([2]; 24 h) | Gait Score ([2]; 48 h) | Gait versus model group, in words [2] | inhibition in vivo at 0.6 mg/kg (TNF-α; 48 h) [%] | inhibition in vivo at 0.6 mg/kg (IL-1β; 48 h) [%] | change in vivo at 0.6 mg/kg ([3]; 2 h) [%] | change in vivo at 0.6 mg/kg ([3]; 4 h) [%] | change in vivo at 0.6 mg/kg ([3]; 8 h) [%] | change in vivo at 0.6 mg/kg ([3]; 10 h) [%] | change in vivo at 0.6 mg/kg ([3]; 24 h) [%] | change in vivo at 0.6 mg/kg ([3]; 48 h) [%] | inhibition in vivo at 0.6 mg/kg (IL-6; 48 h) [%] | further results |
| --- | --- | --- | --- | --- | --- | --- | --- | --- | --- | --- | --- | --- | --- | --- | --- | --- | --- |
| COC(=O)c1ccc2c(cc1=O)[C@@H](NC(C)=O)CCc1cc(OC)c(OC)c(OC)c1-2 [Compound 34, methyl (S)-7-acetamido-1,2,3-trimethoxy-9-oxo-5,6,7,9-tetrahydrobenzo[a]heptalen-10-carboxylate] | 0 | 0 | 0** | 0.1** | 0 | 0 | significant improvement in gait occurred at different time points | – | – | – | – | – | – | – | – | – | inhibition in vivo at 0.6 mg/kg (TNF-α; [4]): 82.9%; MTD at 14 days [1]: > 600 mg/kg; Mortality rate (ICR mice; single gavage dose 50 mg/kg): 0/6; Mortality rate (ICR mice; single gavage dose 100 mg/kg): 0/6; Mortality rate (ICR mice; single gavage dose 400 mg/kg): 0/6; Mortality rate (ICR mice; single gavage dose 600 mg/kg): 0/6; inhibition in vivo at 0.6 mg/kg (IL-1β; [4]): 93.1%; change in vivo at 0.6 mg/kg ([3]; 2 h, dose 0.6 mg/kg gavage): 3.98%; change in vivo at 0.6 mg/kg ([3]; 4 h, dose 0.6 mg/kg gavage): 8.32%; change in vivo at 0.6 mg/kg ([3]; 8 h, dose 0.6 mg/kg gavage): 16.2%; change in vivo at 0.6 mg/kg ([3]; 10 h, dose 0.6 mg/kg gavage): 17.3%; change in vivo at 0.6 mg/kg ([3]; 24 h, dose 0.6 mg/kg gavage): 21.1%; change in vivo at 0.6 mg/kg ([3]; 48 h, dose 0.6 mg/kg gavage): 9.96%; inhibition in vivo at 0.6 mg/kg (IL-6; [4]): 115% |
| CNC(=O)N[C@H]1CCc2cc(OC)c(OC)c(OC)c2-c2cc(C)c(OC)c(=O)cc21 [Compound 44, (S)-1-methyl-(1,2,3,10-tetramethoxy-11-methyl-9-oxo-5,6,7,9-tetrahydrobenzo[a]heptalen-7-yl)urea] | 0 | 0 | 0* | 0* | 0 | 0 | – | 72.6 | 104 | -9.72 | -8.92 | -6.13 | -1.47 | 3.17 | -6.2 | 19.7 | – |
| CNC(=O)c1cc2c(ccc1=O)-c1c(cc(OC)c(OC)c1OC)CC[C@@H]2NC(C)=O [Compound 49, (S)-7-acetamido-1,2,3-trimethoxy-N-methyl-10-oxo-5,6,7,10-tetrahydrobenzo[a]heptalen-9-carboxamide] | 0 | 0 | 0* | 0* | 0.2 | 0 | significant improvement in gait occurred at different time points | 79.2 | 69.1 | -1.02 | 7.38 | 8.12 | 16.5 | 12.9 | 1.43 | 78.6 | – |
| COc1cc2c(c(OC)c1OC)-c1ccc(S(N)(=O)=O)c(=O)cc1[C@@H](NC(C)=O)CC2 [Compound 69, (S)—N-[1,2,3-trimethoxy-9-oxo-10-aminosulfonyl-5,6,7,9-tetrahydrobenzo[a]heptalen-7-yl]acetamide] | 0 | 0 | 0* | 0* | 0 | 0 | significant improvement in gait occurred at different time points | 76.1 | 110 | 5.65 | 7.01 | 14.7 | 26.8 | 19 | 5.21 | 83 | – |
| COc1cc2c(c(OC)c1OC)-c1ccc(-n3ccc(C)n3)c(=O)cc1[C@@H](NC(C)=O)CC2 [Compound 98, (S)—N-{1,2,3-trimethoxy-10-(3-methyl-1H-pyrazol-1-yl)-9-oxo-5,6,7,9-tetrahydrobenzo[a]heptalen-7-yl}acetamide] | 0 | 0 | 0* | 0* | 0.1 | 0 | significant improvement in gait occurred at different time points | 98.9 | 65 | 7.9 | 13.4 | 16.4 | 17.7 | 19.7 | 8.9 | 167 | – |
| COc1cc2c(c(OC)c1OC)-c1ccc(-c3cnn(C)c3)c(=O)cc1[C@@H](NC(C)=O)CC2 [Compound 119, (S)—N-{1,2,3-trimethoxy-10-(1-methyl-1H-pyrazol-4-yl)-9-oxo-5,6,7,9-tetrahydrobenzo[a]heptalen-7-yl}acetamide] | 0 | 0 | 0.1* | 0.4 | 0. | 0 | – | 105 | 85.5 | 10.4 | 14.1 | 19.4 | 22.2 | 15.8 | 5.3 | 169 | – |
| CNC(=O)c1ccc2c(cc1=O)[C@@H](NC(C)=O)CCc1cc(OC)c(O)c(OC)c1-2 [Compound 121, (S)-7-acetamido-2-hydroxy-1,3-dimethoxy-N-methyl-9-oxo-5,6,7,9-tetrahydrobenzo[a]heptalen-10-carboxamide] | 0 | 0 | 0.2 | 0.2 | 0 | 0 | – | 119 | 67.7 | 11.8 | 15.6 | 20.9 | 22.5 | 16.3 | 9.4 | 231 | – |
